Test system: subjects with DED
Experiment: Visual analog scale (VAS) ocular symptom ratings, clinical study with CAE model
Assay type: in vivo, human
Conditions: for VAS Burning/Stinging Change from Baseline, ANCOVA LS Mean Difference (SE), BRM421 OS − Placebo / VAS Burning/Stinging Change from Baseline, Two-Sample t-test Sample Mean Difference (SE), BRM421 OS − Placebo / VAS Eye Dryness Change from Baseline, ANCOVA LS Mean Difference (SE), BRM421 OS − Placebo / VAS Eye Dryness Change from Baseline, Two-Sample t-test Sample Mean Difference (SE), BRM421 OS − Placebo / VAS Photophobia Change from Baseline, ANCOVA LS Mean Difference (SE), BRM421 OS − Placebo / VAS Photophobia Change from Baseline, Two-Sample t-test Sample Mean Difference (SE), BRM421 OS − Placebo / VAS Burning/Stinging Change from Baseline, ANCOVA LS Mean (SE) / VAS Eye Dryness Change from Baseline, ANCOVA LS Mean (SE) / VAS Photophobia Change from Baseline, ANCOVA LS Mean (SE) / VAS Burning/Stinging Change from Baseline, Mean (SD) / VAS Eye Dryness Change from Baseline, Mean (SD) / VAS Photophobia Change from Baseline, Mean (SD): ITT; for VAS Burning/Stinging Change from Baseline, ANCOVA LS Mean (SE) / VAS Eye Dryness Change from Baseline, ANCOVA LS Mean (SE) / VAS Photophobia Change from Baseline, ANCOVA LS Mean (SE) / VAS Burning/Stinging Change from Baseline, Mean (SD) / VAS Eye Dryness Change from Baseline, Mean (SD) / VAS Photophobia Change from Baseline, Mean (SD): baseline last Pre-CAE measure; for VAS Burning/Stinging Change from Baseline, Mean (SD) / VAS Eye Dryness Change from Baseline, Mean (SD) / VAS Photophobia Change from Baseline, Mean (SD): 0-100 mm line
Experimental: A multi-center, randomized, double masked, placebo controlled clinical study was conducted to assess the safety and efficacy of BRM421 ophthalmic solution (OS) in subjects with DED using a controlled adverse environment (CAE®) model (Ora, Inc., Andover, MA, USA). CAE® uses controlled ocular surface stress to exacerbate the signs and symptoms of DED in a safe and controllable manner.
During the first visit (Day-7±1), the subjects were screened, evaluated before CAE®, exposed to CAE®, evaluated after CAE®, and started with the placebo run-in period (7±1 days). During the 7-day study run-in period (for the purpose of subject selection) prior to randomization, all subjects received Placebo OS bilaterally, three times daily (TID). During the second visit, subjects were evaluated before CAE®, exposed to CAE®, and evaluated after CAE®. These evaluations formed the baseline measurements. The subjects were then randomized into two groups to receive either BRM421 ophthalmic solution (OS) or Placebo OS (Vehicle) bilaterally three times daily (TID) for 14 days from Visit 2 to Visit 4.
During these visits, subjects were evaluated for symptom efficacy. Specifically, visual analog scale (VAS) was measured by asking subjects to rate each ocular symptom due to ocular dryness. Symptoms assessed include burning/stinging, itching, foreign body sensation, blurred vision, eye dryness, photophobia, and pain.

[1] = Visit 3, post-CAE evaluations as baselines

Sequence: SLGAEQRTESIIHRALYYDLISSPDIHGT (listed as Homo sapiens) [BRM421, PEDF-derived short peptide, 29mer, residues 93-121; tested as BRM421 ophthalmic solution (OS)]
- VAS burning/stinging, subjects with cataract surgery compared to subjects without cataract surgery (FIG. 4D versus FIG. 4C): more improvements
- VAS Burning/Stinging Change from Baseline, ANCOVA LS Mean Difference (SE), BRM421 OS − Placebo (Visit 3 (Day 8)): −6.8 (2.31) mm
- VAS Burning/Stinging Change from Baseline, Two-Sample t-test Sample Mean Difference (SE), BRM421 OS − Placebo (Visit 3 (Day 8)): −5.9 (2.58) mm
- VAS Eye Dryness Change from Baseline, ANCOVA LS Mean Difference (SE), BRM421 OS − Placebo (Visit 3 (Day 8)): −5.3 (2.33) mm
- VAS Eye Dryness Change from Baseline, Two-Sample t-test Sample Mean Difference (SE), BRM421 OS − Placebo (Visit 3 (Day 8)): −4.7 (2.53) mm
- VAS Photophobia Change from Baseline, ANCOVA LS Mean Difference (SE), BRM421 OS − Placebo (Visit 3 (Day 8)): −4.5 (2.19) mm
- VAS Photophobia Change from Baseline, Two-Sample t-test Sample Mean Difference (SE), BRM421 OS − Placebo (Visit 3 (Day 8)): −4.2 (2.33) mm
- VAS Burning/Stinging Change from Baseline, ANCOVA LS Mean (SE) (Visit 3 (Day 8)): −9.8 (1.67) mm
- VAS Eye Dryness Change from Baseline, ANCOVA LS Mean (SE) (Visit 3 (Day 8)): −9.4 (1.69) mm
- VAS Photophobia Change from Baseline, ANCOVA LS Mean (SE) (Visit 3 (Day 8)): −6.2 (1.59) mm
- VAS Burning/Stinging Change from Baseline, Mean (SD) (Visit 3 (Day 8)): −8.8 (20.35) mm
- VAS Eye Dryness Change from Baseline, Mean (SD) (Visit 3 (Day 8)): −8.4 (19.22) mm
- VAS Photophobia Change from Baseline, Mean (SD) (Visit 3 (Day 8)): −5.6 (15.49) mm
- Mean changes from baseline in burning/stinging, eye dryness and photophobia compared to placebo (Visit 3, ITT Population, FIG. 2A): significant difference
- VAS burning/stinging relative to placebo (FIG. 2B) [1]: significant improvement
- VAS dryness relative to placebo (FIG. 2B) [1]: less significant improvement
- VAS dryness and VAS burning/stinging relative to placebo (FIG. 2B) (Visit 3, pre-CAE evaluations as baselines): significant improvements
- VAS Burning/Stinging Change from Baseline, ANCOVA LS Mean Difference (SE), BRM421 OS − Placebo (Visit 4 (Day 15)): −3.8 (2.58) mm
- VAS Burning/Stinging Change from Baseline, Two-Sample t-test Sample Mean Difference (SE), BRM421 OS − Placebo (Visit 4 (Day 15)): −2.9 (2.85) mm
- VAS Eye Dryness Change from Baseline, ANCOVA LS Mean Difference (SE), BRM421 OS − Placebo (Visit 4 (Day 15)): 0.8 (2.66) mm
- VAS Eye Dryness Change from Baseline, Two-Sample t-test Sample Mean Difference (SE), BRM421 OS − Placebo (Visit 4 (Day 15)): 1.2 (2.80) mm
- VAS Photophobia Change from Baseline, ANCOVA LS Mean Difference (SE), BRM421 OS − Placebo (Visit 4 (Day 15)): −3.5 (2.26) mm
- VAS Photophobia Change from Baseline, Two-Sample t-test Sample Mean Difference (SE), BRM421 OS − Placebo (Visit 4 (Day 15)): −3.2 (2.40) mm
- VAS Burning/Stinging Change from Baseline, ANCOVA LS Mean (SE) (Visit 4 (Day 15)): −10.0 (1.86) mm
- VAS Eye Dryness Change from Baseline, ANCOVA LS Mean (SE) (Visit 4 (Day 15)): −9.2 (1.92) mm
- VAS Photophobia Change from Baseline, ANCOVA LS Mean (SE) (Visit 4 (Day 15)): −7.8 (1.63) mm
- VAS Burning/Stinging Change from Baseline, Mean (SD) (Visit 4 (Day 15)): −9.0 (21.26) mm
- VAS Eye Dryness Change from Baseline, Mean (SD) (Visit 4 (Day 15)): −8.4 (21.48) mm
- VAS Photophobia Change from Baseline, Mean (SD) (Visit 4 (Day 15)): −7.3 (16.50) mm
- VAS dryness, burning/stinging and photophobia versus baseline (FIG. 2A) (Visits 3 and 4 relative to Visit 2 pre-CAE baseline): showed improvements over the baseline
- Onset of effects (inferred from significant difference to placebo at Visit 3): relatively fast onset
- VAS burning/stinging (FIG. 4B) (patients with both DED and cataract, pre-CAE and post-CAE evaluations): very significant improvements
- VAS burning/stinging (FIG. 4A) (patients with only DED (without cataract), pre-CAE or post-CAE evaluations): no significant improvements
- VAS dryness (FIG. 4G, FIG. 4H) (subjects with cataract regardless of the surgery status, pre-CAE and post-CAE evaluations): significant improvements
- VAS dryness compared to placebo (FIG. 4F) (subjects with cataract, pre-CAE and post-CAE evaluations): significant improvements
- VAS dryness compared to placebo (FIG. 4E) (subjects without cataract, pre-CAE and post-CAE evaluations): did not show significant improvements
